The source of these data is patent US8686224B2, “Plant defense signal peptides” (priority 2005, dated 2014).

The target of one experiment is T1, AtPEPR1 (Arabidopsis thaliana, UniProt Q9SSL9).
T1 construct: Tobacco cells were transformed with a CaMV-35S-AtPEPR1 gene; expressed in transfected cells; host or cells: tobacco suspension-cultured cells (Agrobacterium-mediated, CaMV 35S promoter)
T1 sequence (Q9SSL9 29-1123): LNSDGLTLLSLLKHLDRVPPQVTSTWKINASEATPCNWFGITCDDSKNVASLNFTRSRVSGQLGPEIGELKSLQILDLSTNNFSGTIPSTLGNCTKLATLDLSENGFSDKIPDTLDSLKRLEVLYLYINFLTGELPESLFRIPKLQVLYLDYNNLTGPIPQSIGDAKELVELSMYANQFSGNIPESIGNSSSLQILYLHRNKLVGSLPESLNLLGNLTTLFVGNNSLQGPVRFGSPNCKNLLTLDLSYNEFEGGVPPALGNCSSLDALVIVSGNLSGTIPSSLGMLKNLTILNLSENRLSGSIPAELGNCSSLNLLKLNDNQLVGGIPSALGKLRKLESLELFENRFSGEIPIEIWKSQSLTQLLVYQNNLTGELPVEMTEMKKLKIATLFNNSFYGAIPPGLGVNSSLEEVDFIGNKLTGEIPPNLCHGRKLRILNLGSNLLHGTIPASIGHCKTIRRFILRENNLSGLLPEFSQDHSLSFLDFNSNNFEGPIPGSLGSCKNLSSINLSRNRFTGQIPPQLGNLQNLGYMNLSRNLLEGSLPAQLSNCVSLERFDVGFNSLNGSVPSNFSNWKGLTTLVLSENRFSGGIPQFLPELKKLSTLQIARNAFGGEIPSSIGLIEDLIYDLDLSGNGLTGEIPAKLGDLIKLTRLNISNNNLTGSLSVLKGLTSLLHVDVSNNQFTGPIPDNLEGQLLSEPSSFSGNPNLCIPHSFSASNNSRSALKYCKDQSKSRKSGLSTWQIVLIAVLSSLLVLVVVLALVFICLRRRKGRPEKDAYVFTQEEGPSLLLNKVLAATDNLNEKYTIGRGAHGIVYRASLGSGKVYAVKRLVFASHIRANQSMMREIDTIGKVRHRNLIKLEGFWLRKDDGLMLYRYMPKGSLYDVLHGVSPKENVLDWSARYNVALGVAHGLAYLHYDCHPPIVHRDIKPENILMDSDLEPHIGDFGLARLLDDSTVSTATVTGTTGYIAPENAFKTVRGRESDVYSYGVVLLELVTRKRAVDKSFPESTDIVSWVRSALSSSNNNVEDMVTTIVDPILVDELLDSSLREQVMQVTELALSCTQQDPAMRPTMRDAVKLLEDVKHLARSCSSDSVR
The experiment is described as follows: Medium alkalinization of transgenic tobacco cells expressing AtPEPR1. The class given is cell-based. An excerpt:
Tobacco cells were transformed with a CaMV-35S-AtPEPR1 gene to determine whether the foreign receptor protein was targeted to the cell surface, where, in response to AtPep1, it would activate intracellular signaling to effect the alkalinization of the medium of the transgenic tobacco cells. Expression of the AtPEPR1 gene was confirmed by RT-PCR analysis of RNA from three independently transformed tobacco cell lines. […] AtPep2-7 was also supplied to the transgenic tobacco cells expressing AtPEPR1.
(§1) To clarify whether AtPEPR2 binds to AtPep1, the AtPEPR2 coding region was fused to the CaMV 35S promoter and introduced into tobacco suspension-cultured cells by Agrobacterium. Tobacco cells expressing AtPEPR1 and GUS genes were also created as positive and negative controls, respectively. […] These transgenic lines were analyzed for alkalinizing activity as previously described (Pearce et al., Proc. Natl. Acad. Sci. USA 98, 12843-12847, 2001).
(§2) The response to all AtPep peptides in transgenic tobacco cells expressing either AtPEPR1 or AtPEPR2 was analyzed by the medium alkalinization assay.

The target of a further experiment is T2, AtPEPR2 (Arabidopsis thaliana, UniProt Q9FZ59).
T2 construct: the AtPEPR2 coding region was fused to the CaMV 35S promoter and introduced into tobacco suspension-cultured cells; expressed in transfected cells; host or cells: tobacco suspension-cultured cells, transformed by Agrobacterium, kanamycin-selected
T2 sequence (Q9FZ59 27-1088): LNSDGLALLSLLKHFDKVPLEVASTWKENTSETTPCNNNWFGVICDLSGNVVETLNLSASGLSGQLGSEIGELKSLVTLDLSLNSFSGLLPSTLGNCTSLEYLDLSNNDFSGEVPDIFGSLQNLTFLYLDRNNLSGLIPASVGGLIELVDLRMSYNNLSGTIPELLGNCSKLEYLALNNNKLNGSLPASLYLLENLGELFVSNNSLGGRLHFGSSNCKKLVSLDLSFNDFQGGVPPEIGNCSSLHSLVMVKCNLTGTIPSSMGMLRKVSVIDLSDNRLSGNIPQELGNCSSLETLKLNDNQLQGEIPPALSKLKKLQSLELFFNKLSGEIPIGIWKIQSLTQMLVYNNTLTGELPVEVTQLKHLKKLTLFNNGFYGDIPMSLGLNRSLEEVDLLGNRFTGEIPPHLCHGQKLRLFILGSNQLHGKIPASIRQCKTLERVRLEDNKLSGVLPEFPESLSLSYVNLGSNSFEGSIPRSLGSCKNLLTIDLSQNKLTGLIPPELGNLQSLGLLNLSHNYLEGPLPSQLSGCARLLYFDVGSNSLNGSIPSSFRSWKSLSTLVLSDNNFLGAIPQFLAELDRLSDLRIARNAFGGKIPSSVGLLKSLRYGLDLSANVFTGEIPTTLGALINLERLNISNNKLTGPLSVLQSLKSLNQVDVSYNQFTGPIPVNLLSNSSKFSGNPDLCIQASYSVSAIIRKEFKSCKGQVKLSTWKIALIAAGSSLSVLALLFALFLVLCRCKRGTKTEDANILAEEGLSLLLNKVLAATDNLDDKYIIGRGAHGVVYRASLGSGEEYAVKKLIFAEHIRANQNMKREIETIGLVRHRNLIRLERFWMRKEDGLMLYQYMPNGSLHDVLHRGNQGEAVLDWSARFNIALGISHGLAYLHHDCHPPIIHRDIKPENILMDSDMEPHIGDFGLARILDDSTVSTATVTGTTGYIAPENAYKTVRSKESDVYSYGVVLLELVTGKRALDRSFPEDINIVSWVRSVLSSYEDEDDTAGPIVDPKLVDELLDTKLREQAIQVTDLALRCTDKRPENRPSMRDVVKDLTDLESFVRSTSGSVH
Kind of experiment: Medium alkalinization of transgenic tobacco cells expressing AtPEPR2. In kind it is cell-based. The procedure: as §1, §2

Experiment [1] deals with AtPEPR1 and AtPEPR2 transcripts. The experiment is described as follows: Expression analysis of AtPEPR1 and AtPEPR2 (Northern hybridization, quantitative RT-PCR). In kind it is in vivo, Arabidopsis thaliana. The note with it: within 30 min. The procedure:
Expression analysis of AtPEPR1 and AtPEPR2. […] In order to elucidate the role of AtPEPR2 in AtPeps signal transduction, the gene expression patterns were analyzed in comparison with AtPEPR1.

Experiment [2] relates to AtproPep1 gene expression. The experiment is described as follows: Hormone treatments of intact plants, RT-PCR of AtproPep1 and paralogs. The class given is in vivo, Arabidopsis thaliana. As for the experimental part:
Plant stress and hormone treatments. To examine effects of cold stress, plants were placed in a refrigerated growth chamber set to 2° C. To simulate drought stress conditions, plants grown under standard growth chamber conditions were grown without watering. Methyl jasmonate (Bedoukian Research Inc., Danbury Conn.) was applied as a 625 μM solution in 0.1% Triton X-100 to the upper surface of leaves and the plants were incubated in plexiglass boxes. Methyl salicylate (Sigma-Aldrich, St. Louis Mo.), was applied to leaf surfaces at 2 mM in a 0.1% Triton X-100 solution. Ethephon (Phytotechnology Laboratories, Shawnee Mission Kans.) was sprayed on plants as a 7 mM solution in 0.1% Triton X-100 (Sigma-Aldrich, St. Louis Mo.). ABA effects were analyzed by spraying plants with a 100 μM solution (mixed isomer, Sigma-Aldrich, St. Louis Mo.) in 0.1% Triton X-100 (Denekamp and Smeekens, Plant Physiol. 132, 1415-1423, 2003).
Semi-quantitative RT-PCR analysis of relative gene expression levels. RNA was isolated using Trizol reagent and manufacturer's instructions (Invitrogen. Carlsbad Calif.), and 2 μg of RNA template was reverse transcribed with a RETROscript kit (Ambion, Austin Tex.). PCR reactions were carried out with ExTaq Hot Start polymerase and reagents (Fisher Scientific, Pittsburgh Pa.). The AtproPep1 forward and reverse primers with the respective sequences of 5′ […] 3′ (SEQ ID NO: 59) and 5′ […] 3′ (SEQ ID NO: 60) generated a 310 bp intron-spanning product. Primers to β-tubulin (At5g62690) of 5′ […] 3′ (SEQ ID NO: 73) and 5′ […] 3′ (SEQ ID NO: 74) generated a 681 base pair intron-spanning product. An initial denaturing/polymerase activating step of 5 minutes at 94° C. was followed by 31 repetitions of the following three steps: a thirty second denaturation phase at 94° C., a thirty second annealing period at 55.5° C., and a one minute elongation step at 72° C. The amplification program was terminated with a 10 minute final 72° C. elongation phase.
Expression analysis of AtproPep1 in response to abiotic and biotic cues. As a first step in seeking a possible function for AtproPep1 and its encoded peptide, the basal expression level of the gene was assessed in leaves, stems, roots and flowers of Arabidopsis plants was studied using semi-quantitative RT-PCR analysis of AtproPep1 gene expression in response to treatment of leaves with MeJA, ethephon, MeSA, and AtPep1. The relative abundance of the proAtPep1 transcript was estimated from the expression of the β-tubulin gene as a control. Leaves were wounded by crushing once across the mid-vein with a hemostat. Plants were sprayed with a 250 μM solution of MeJA in 0.1% Triton X-100; with a […] solution of MeSA in 0.1% Triton X-100 or with a 7 mM solution of ethephon in 0.1% Triton X-100. […] Total RNA was extracted and analyzed.

Experiment [3] deals with GmPROPEP and soybean defense-related gene expression. The experiment is described as follows: Soybean gene expression by semi-quantitative RT-PCR. The class given is in vivo. As for the experimental part:
Precursor gene expression of soybean homologues of the AtPep peptide, GmPROPEP1, GmPROPEP2 and GmPROPEP3, were analyzed by semi-quantitative RT-PCR. GmPROPEP2 and GmPROPEP3 were expressed in leaves, stems and roots. GmPROPEP1 was expressed mainly in roots, and very weakly in leaves and stems. The transcripts of GmPROPEP1 increased 4-fold 1 hour after supplying MeJA and 3-fold 8 hours after wounding. The transcripts of GmPROPEP2 increased 5-fold 2 hours after supplying MeJA. GmPep1-3 also affected the precursor gene expression. The GmPROPEP1 was induced by infiltration of GmPep1-3 (50 nM), and GmPROPEP2 was induced by GmPep2 (50 nM) and GmPep3 (50 nM) infiltration.
To examine whether GmPep1-3 are involved in defense responses, expression of soybean defense-related genes were analyzed by semi-quantitative RT-PCR after GmPep1-3 infiltration. The transcripts of D6aH/CYP93a1, a biosynthetic enzyme of the soybean phytoalexin glyceollin (Schopfer et al., FEBS Lett. 432: […], 1998), were induced 2 to 3-fold by GmPep1-3 infiltration.

The test system of a further experiment is OsPEPR1. The experiment is described as follows: Medium alkalinization of transgenic tobacco cells expressing OsPEPR1. In kind it is cell-based, rice. An excerpt:
(§3) We identified rice homologues of AtPEPR1 in the Rice Annotation Project database (see the website located at www.rapdb.dna.affrc.go.jp). The rice homologues, OsPEPR1 (Os08g0446200) and OsPEPR2 (Os08g0446400), have 60% and 62% amino acid similarities, respectively. The OsPEPR1 has 26 LRRs in the extracellular region, which is the same as AtPEPR1. The OsPEPR2 has a shorter extracellular region with 22 LRRs. Transgenic tobacco cells expressing either OsPEPR1 or OsPEPR2 were created to examine the possibility of receptor binding to monocot peptides. OsPep3a, OsPep3b, OsPep3c, ZmPep1 and ZmPep4a were supplied to suspension cultured transgenic tobacco cells, and medium pH was measured. OsPep3a, OsPep3b, ZmPep1 and ZmPep4a caused medium alkalinization in OsPEPR1 expressing cells with a 1.2 pH unit increase and a half-maximal activity of 0.25 nM.

Another experiment deals with OsPEPR2. Kind of experiment: Medium alkalinization of transgenic tobacco cells expressing OsPEPR2. In kind it is cell-based, rice.
OsPEPR2, sequence (as listed by the source): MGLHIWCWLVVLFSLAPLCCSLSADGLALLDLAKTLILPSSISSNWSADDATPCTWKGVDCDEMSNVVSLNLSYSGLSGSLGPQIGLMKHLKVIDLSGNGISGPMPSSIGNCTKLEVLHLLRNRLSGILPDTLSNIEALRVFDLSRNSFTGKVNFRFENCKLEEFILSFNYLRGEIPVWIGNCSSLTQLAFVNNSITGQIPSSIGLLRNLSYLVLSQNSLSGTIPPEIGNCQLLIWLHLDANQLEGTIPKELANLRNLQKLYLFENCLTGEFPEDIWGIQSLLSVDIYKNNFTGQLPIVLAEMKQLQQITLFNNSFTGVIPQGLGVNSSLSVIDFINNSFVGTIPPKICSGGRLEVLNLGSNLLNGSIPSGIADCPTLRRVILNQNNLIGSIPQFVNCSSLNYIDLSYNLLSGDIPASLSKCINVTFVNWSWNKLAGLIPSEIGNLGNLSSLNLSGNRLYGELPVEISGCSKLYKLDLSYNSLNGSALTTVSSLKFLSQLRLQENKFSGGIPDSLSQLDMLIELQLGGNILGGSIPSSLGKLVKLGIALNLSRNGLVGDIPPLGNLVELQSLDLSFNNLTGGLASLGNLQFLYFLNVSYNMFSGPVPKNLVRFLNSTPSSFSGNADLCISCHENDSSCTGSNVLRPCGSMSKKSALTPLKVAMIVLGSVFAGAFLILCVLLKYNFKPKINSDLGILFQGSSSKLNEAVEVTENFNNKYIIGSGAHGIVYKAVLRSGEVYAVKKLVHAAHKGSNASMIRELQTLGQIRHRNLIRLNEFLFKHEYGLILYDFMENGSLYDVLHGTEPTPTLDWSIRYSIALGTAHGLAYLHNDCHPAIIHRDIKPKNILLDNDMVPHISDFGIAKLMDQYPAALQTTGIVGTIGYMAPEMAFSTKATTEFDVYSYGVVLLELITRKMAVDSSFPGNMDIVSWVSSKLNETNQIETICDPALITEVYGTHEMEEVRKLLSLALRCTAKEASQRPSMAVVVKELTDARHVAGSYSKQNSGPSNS
Description: as §3

No end group written: not given here.

OsPEPR1, sequence (as listed by the source): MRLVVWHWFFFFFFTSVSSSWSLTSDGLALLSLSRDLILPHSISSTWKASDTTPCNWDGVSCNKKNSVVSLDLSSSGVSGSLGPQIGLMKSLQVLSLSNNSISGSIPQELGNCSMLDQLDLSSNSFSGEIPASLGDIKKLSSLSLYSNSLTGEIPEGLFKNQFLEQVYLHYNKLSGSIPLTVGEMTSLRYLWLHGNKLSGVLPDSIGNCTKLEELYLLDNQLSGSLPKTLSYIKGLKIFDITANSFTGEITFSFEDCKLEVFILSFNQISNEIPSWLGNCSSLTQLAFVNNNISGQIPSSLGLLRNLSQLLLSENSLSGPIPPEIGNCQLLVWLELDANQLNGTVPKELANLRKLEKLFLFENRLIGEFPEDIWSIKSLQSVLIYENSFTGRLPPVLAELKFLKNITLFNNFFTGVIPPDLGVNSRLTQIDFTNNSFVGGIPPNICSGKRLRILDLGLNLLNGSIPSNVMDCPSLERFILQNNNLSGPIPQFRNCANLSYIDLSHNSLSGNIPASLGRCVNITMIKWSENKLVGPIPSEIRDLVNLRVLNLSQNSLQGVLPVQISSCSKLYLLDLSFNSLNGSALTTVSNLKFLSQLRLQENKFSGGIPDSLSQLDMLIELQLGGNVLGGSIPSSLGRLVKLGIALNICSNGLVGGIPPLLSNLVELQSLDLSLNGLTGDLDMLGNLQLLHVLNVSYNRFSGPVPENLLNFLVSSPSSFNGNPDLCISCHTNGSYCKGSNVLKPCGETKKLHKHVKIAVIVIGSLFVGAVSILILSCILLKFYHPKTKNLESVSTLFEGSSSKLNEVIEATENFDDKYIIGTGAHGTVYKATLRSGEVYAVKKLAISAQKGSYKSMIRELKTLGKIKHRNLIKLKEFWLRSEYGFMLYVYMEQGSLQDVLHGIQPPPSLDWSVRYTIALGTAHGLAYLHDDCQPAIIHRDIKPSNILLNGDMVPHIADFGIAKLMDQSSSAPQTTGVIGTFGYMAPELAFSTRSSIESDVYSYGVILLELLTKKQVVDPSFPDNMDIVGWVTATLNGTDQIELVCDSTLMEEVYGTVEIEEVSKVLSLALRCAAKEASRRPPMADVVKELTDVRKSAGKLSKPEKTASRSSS

Turning to “SLNVMRKGIRKQPVSSGKRGGVN [AtPep2, SLNVMRKGIRKQPVSSGKRGGVN]”, the half-maximal effective concentration (EC50) at AtPEPR1 and at AtPEPR2 was ~0.25 nM each time.

Molecule “EIKARGKNKTKPTPSSGKGGKHN [AtPep3, DNKAKSKKRDKEKPSSGRPGQTN]” came in with a maximal change on AtPEPR1 (AtPEPR1 expressing tobacco cells) of 1.2 pH units. The “induction of AtPEPR1 and AtPEPR2 transcripts” value in experiment [1] is “strong inducer”.

Turning to `CC/C=C\CC1C(=O)CCC1CC(=O)OC` (stereo not drawn) [MeJA, methyl jasmonate], the “expression of AtproPep1 paralogs after spraying” value in experiment [2] (At5g64905, At5g64900, At5g64890, At5g09980) was “expressed relatively strongly”. Also, the “expression of the AtproPep1 gene in intact plants” value in experiment [2] (sprayed: MeJA 250 μM, ethephon 7 mM, within an hour) is reported as “induced a strong expression”. For the same molecule, the “induction of AtPEPR1 and AtPEPR2 transcripts” value in experiment [1] is “induced”. The “increase of GmPROPEP1 transcripts” value in experiment [3] (1 hour after supplying) is on record as 4 fold. Besides, in experiment [3] (2 hours after supplying), the “increase of GmPROPEP2 transcripts” value is 5 fold.

Consider “SLAGANVLVRDAPPETGGGPHHN (SLAGANVLVRDAPPETGGGPHHN) [OsPep3c]”, for which the medium alkalinization activity result was “did not show any activity” with OsPEPR1 and “weak activity” in the experiment with OsPEPR2. Further, the “medium pH increase” value with OsPEPR2 (peptide at 250 nM) is 0.5 pH unit.

The term EC50 denotes the midpoint of the concentration-response curve. The low end stands for an effect from little substance, the high end for a need for much substance.
